# Results from patent US20190390245A1, “CYTOTOXICITY TEST METHOD FOR MEDICAL DEVICE” (ALCON INC., priority 2018, published 2019).
# Like-named read-outs stand apart in the source and are kept apart here.
# Columns and labels:
# L929 cells [1] = experiment: Two layer embedded modified agar overlay cytotoxicity test
# Procedure: The test article meets the ‘pass’ criteria of the test if the biological response is less than or equal to grade 2 (mild).
# 1×MEMAOM was used as the nutrient supplement agar at 2 mL/well.
# B) Two layer embedded modified agar overlay. The test materials were added after the base nutrient agar solidified, and 2.0 mL of L929 (1.8×10^6 cells/mL) cell agar mixture described above was added on top of the test materials to fully cover the test materials with a final cell concentration of 3.6×10^6 cells/well. After 24 hours of incubation, cells were examined as described in ISO/USP agar overlay method.
# C) For the extended study duration, cells were prepared as described in A) and B). Reference material A and no treatment were evaluated for up to 72-hour incubation.
# D) two layer modified and embedded modified agar overlay for liquid materials. Paper filter discs (100 μL of either 100% Ethanol or 2000 ppm BAK) were prepared as described in A) and B).
# L929 cells [2] = experiment: ISO/USP (traditional) agar overlay cytotoxicity test; format: cell-based, Mouse
# Procedure: The ISO 10993-5 (2009) qualitative agar diffusion/overlay assay is appropriate for high density materials and liquids. This assay is conducted by adding a thin layer of nutrient-supplemented agar over the near confluent monolayer of L929 cells, and the test material (a solid sample, or an extract of the test material or liquid placed on filter paper) is placed on top of the agar layer. The cushioning effect of an agar layer protects the L929 cells from the potential mechanical damage by the test material's movement. Cells are examined after 24-hours incubation for signs of toxicity and stained with neutral red dye to differentiate between the viable, stressed or lysed cells. Cytotoxic leachates diffuse into the cell layer through the agar, and toxicity is indicated by a loss of viable cells around the test device as evidenced by area devoid of stain under and around the test material. The disadvantage of agar overlay assay is that potential cytotoxic leachates may bind to the agar and not be able to diffuse across the plate as compared to the liquid medium; thus, the cells are not fully exposed to the test substance.
# L929 cells [3] = details: concentration known to be toxic to the rabbit eyes; Bruinink and Luginbuehl, 2012; cited from earlier work
Molecule,"Color zone formation (observation), Two layer embedded Modified Agar Overlay (L929 cells [1]; Table 4, liquids, 100 μL on paper filter)","Grade, color zone formation, ISO/USP Agar Overlay (L929 cells [2])","Cytotoxicity responses, traditional agar overlay method (previous observations) (L929 cells [3])","Color zone formation (observation), Two layer embedded Modified Agar Overlay (L929 cells [1])"
"CCO [Ethanol, ethanol]",no zone,–,–,–
Benzalkonium Chloride [BAK],–,Grade 0,failed to show cytotoxicity responses,no zone
